Laboratory results as given in ChEMBL document CHEMBL1201862, “PubChem BioAssay data set” (2004).
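1) Cells in 96-well plates. 2) Compound, 48 h, 5 concentrations. 3) Linear interpolation between surrounding doses. 4) Unreached endpoint = highest concentration. Abbreviation: GI50, concentration required for 50% inhibition of growth.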 Activity calls are given as the source filed them. No stated cut-off is given here; in the data, active = GI50 up to about 1.1 µM and inactive = higher.

Legend:
Assay in all cases: NCI-60 cell line screen, 48 h
[1] = tested on: 786-0
[2] = tested on: A549
[3] = tested on: ACHN
[4] = tested on: COLO 205
[5] = tested on: HCC 2998
[6] = tested on: Hs-578T
[7] = tested on: IGROV-1
[8] = tested on: M14
[9] = tested on: MDA-MB-231
[10] = tested on: MOLT-4
[11] = tested on: NCI-H226
[12] = tested on: NCI/ADR-RES
[13] = tested on: OVCAR-5
[14] = tested on: SF-268
[15] = tested on: SK-MEL-28
[16] = tested on: SN12C
[17] = tested on: SNB-75
[18] = tested on: SW-620
[19] = tested on: UO-31
[20] = tested on: K562

Measured: GI50

O=C1c2cc(-c3ccccc3)cnc2S(=O)(=O)N1c1ccc(Br)cc1
inactive: [1] 37.6 µM | [2] 18.7 µM | [3] > 100 µM | [4] > 100 µM | [5] 17.8 µM | [6] 20 µM | [7] 46.2 µM | [8] 76.9 µM | [9] 52.2 µM | [10] 46.3 µM | [11] > 100 µM | [12] 83.6 µM | [13] 40.8 µM | [14] 33.7 µM | [15] 90.8 µM | [16] > 100 µM | [17] 25.1 µM | [18] 81.8 µM | [19] > 100 µM

C=CCN1C(=O)CC2[C@@H]3CCc4cc(O)ccc4C3CC[C@]2(C)C1=O (stereo not given in full)
inactive: [1] > 10 µM | [2] > 10 µM | [3] > 10 µM | [4] > 10 µM | [5] > 10 µM | [6] > 10 µM | [7] > 10 µM | [20] > 10 µM | [8] > 10 µM | [9] > 10 µM | [10] > 10 µM | [11] > 10 µM | [12] > 10 µM | [13] > 10 µM | [14] > 10 µM | [15] > 10 µM | [16] > 10 µM | [18] > 10 µM | [19] > 10 µM

C=C[C@@H](OCOCC[Si](C)(C)C)[C@@H](CC)OC(CCCOC(=O)C(C)(C)C)OC (stereo not given in full)
inactive: [1] 25 µM | [2] 31.5 µM | [3] 36.7 µM | [4] 29.9 µM | [6] 27.1 µM | [7] 49 µM | [20] 60.4 µM | [8] 36.4 µM | [9] 66.1 µM | [10] 91.2 µM | [11] 21.9 µM | [12] 30.1 µM | [13] 21.7 µM | [14] 33.3 µM | [15] 34.5 µM | [16] 45.3 µM | [17] 31 µM | [18] 26.1 µM | [19] 40 µM

CC(=O)Nc1ncc(Sc2ccccc2C(=O)O)s1
inactive: [1] > 100 µM | [2] > 100 µM | [3] > 100 µM | [4] > 100 µM | [6] > 100 µM | [7] > 100 µM | [20] > 100 µM | [8] > 100 µM | [9] > 100 µM | [10] > 100 µM | [11] > 100 µM | [12] > 100 µM | [13] > 100 µM | [14] > 100 µM | [15] > 100 µM | [16] > 100 µM | [17] > 100 µM | [18] > 100 µM | [19] > 100 µM

CC(=O)NC(C)c1ccc(/N=N/N2CCCC2)cc1 (stereo not given)
inactive: [1] > 100 µM | [2] > 100 µM | [3] > 100 µM | [4] > 100 µM | [5] > 100 µM | [6] > 100 µM | [7] > 100 µM | [8] > 100 µM | [9] > 100 µM | [11] > 100 µM | [12] > 100 µM | [13] > 100 µM | [14] > 100 µM | [15] > 100 µM | [16] > 100 µM | [17] > 100 µM | [18] > 100 µM | [19] > 100 µM

NNC1=NC(=O)NC(=O)C1
inactive: [1] > 100 µM | [2] > 100 µM | [3] > 100 µM | [4] > 100 µM | [6] > 100 µM | [7] > 100 µM | [20] > 100 µM | [8] > 100 µM | [9] > 100 µM | [10] > 100 µM | [11] > 100 µM | [12] > 100 µM | [13] > 100 µM | [14] > 100 µM | [15] > 100 µM | [16] > 100 µM | [17] > 100 µM | [18] > 100 µM | [19] > 100 µM

CCOC(=O)c1c(NS(=O)(=O)c2ccc(C)cc2)sc2c1CCCC2
inactive: [1] 35.2 µM | [2] 24.5 µM | [3] 29.9 µM | [4] 19 µM | [6] 26.9 µM | [7] 27.2 µM | [20] 20.6 µM | [8] 35.8 µM | [9] 22.5 µM | [10] 37.6 µM | [11] 40.8 µM | [12] 27 µM | [13] 65.3 µM | [14] 26.1 µM | [16] 31.8 µM | [17] 27.1 µM | [19] 21.1 µM
